In data set [1] the test system is Human epidermoid carcinoma (oral) cell KB. The data set is described as follows: Cytocidal activity of HS-1 for KB cells (MTT). In kind it is cell-based. To be noted: 72 hours, absorption at 540 nm, read-out: TC50 (the source's name). Here is the method:
Human epidermoid carcinoma (oral) cell KB was inoculated into 96-well microplates (4000 cells/200 μl/well) and cultured in DMEM medium (containing 5% FCS) in 5% CO2 at 37° C. for 24 hours. 5 μl of HS-1 solutions in DMSO at various HS-1 concentrations were added to above culture. After the culture incubated for 72 hours, 10 μl of a 2.5 mg/ml MTT solution was added and incubator was continued for a further 4 hours, thus producing formazan. After the addition of 200 μl of DMSO, the absorption at 540 nm was measured using an imunoreader. The cytocidal activity of HS-1 for KB cells was determined from the ratio of the absorption of the compound to the absorption of the control.

The next data set deals with Bacillus subtilis rec +. The data set is described as follows: Antimicrobial activity, paper disc inhibition zone. In kind it is cell-based. To be noted: 40 μg/disc, 8 mm paper disc; Bacillus subtilis rec + (wild strain). On the procedure: (§1) Antimicrobial activity of HS-1 was examined using eleven kinds of bacteria, fungi, and yeasts using paper discs with a diameter of 8 mm, at a concentration of 40 μg/disc. The results are shown in Table 3, wherein the antimicrobial activity of HS-1 is indicated as the diameter of the inhibition zone.

A further data set relates to Bacillus subtilis rec -. The data set is described as follows: Antimicrobial activity, paper disc inhibition zone. The format is cell-based. The note with it: 40 μg/disc, 8 mm paper disc; Bacillus subtilis rec - (repair activity defective strain). Here is the method:
as §1

Data set [2] concerns Botrytis cinerea IFO 5365. The data set is described as follows: Antimicrobial activity, paper disc inhibition zone. The format is cell-based. To be noted: IFO5365, 40 μg/disc, 8 mm paper disc. On the procedure: as §1
The next data set deals with Escherichia coli AB 1157. The data set is described as follows: Antimicrobial activity, paper disc inhibition zone. In kind it is cell-based. The note with it: AB1157, 40 μg/disc, 8 mm paper disc. On the procedure: as §1
The next data set concerns Escherichia coli BE 1196. The data set is described as follows: Antimicrobial activity, paper disc inhibition zone. In kind it is cell-based. The note with it: BE1196, 40 μg/disc, 8 mm paper disc. Here is the method: as §1
Data set [3] deals with Mycobacterium phlei IFO 11158. The data set is described as follows: Antimicrobial activity, paper disc inhibition zone. The format is cell-based. To be noted: Mycolicibacterium phlei, IFO11158, 40 μg/disc, 8 mm paper disc. Here is the method: as §1
Data set [4] concerns Pseudomonas aeruginosa N-10 (L-form). The data set is described as follows: Antimicrobial activity, paper disc inhibition zone. The format is cell-based. To be noted: 40 μg/disc, 8 mm paper disc. Here is the method: as §1
For data set [5], the system named is Schizosaccharomyces pombe IFO 0638. The data set is described as follows: Antimicrobial activity, paper disc inhibition zone. The format is cell-based. To be noted: IFO0638, 40 μg/disc, 8 mm paper disc. On the procedure: as §1
Data set [6] relates to Staphylococcus aureus IFO 12732. The data set is described as follows: Antimicrobial activity, paper disc inhibition zone. The format is cell-based. To be noted: IFO12732, 40 μg/disc, 8 mm paper disc. On the procedure:
as §1

In data set [7] the test system is Xanthomonas citri IFO 3781. The data set is described as follows: Antimicrobial activity, paper disc inhibition zone. The format is cell-based. To be noted: IFO3781, 40 μg/disc, 8 mm paper disc. On the procedure: as §1
The subject of data set [8] is Xanthomonas oryzae IFO 331.2. The data set is described as follows: microbe, parasite or virus in culture. In kind it is cell-based. To be noted: IFO331, read-out: Inhibition zone.
A short description of the next data set: Solubility. The format is physicochemical.
For data set [9] the following is noted: known from the literature; cited from earlier work.

SMILES strings stand for the structures. In brackets after ≈: the same amount, converted by molar mass. A value given as a limit tells only on which side of the number the result lay.

As to `O=C1N=C(c2c[nH]c3ccccc23)C=C1c1c[nH]c2ccccc12` [HS-1], the IC50 in data set [1] amounted to 0.68 µg/mL (≈ 2.18 µM). Besides, the zone of inhibition at 40 µg/disc with Bacillus subtilis rec + was 0 mm; in the data set with Bacillus subtilis rec -, less than 10 mm; in data set [2] it was 0 mm; with Escherichia coli AB 1157, 0 mm; with Escherichia coli BE 1196, 0 mm; in [3], 0 mm. In addition, the zone of inhibition at 40 µg/disc in [4] is less than 10 mm; in [5] it was 0 mm; in data set [6], 0 mm; in data set [7], 0 mm; in data set [8], 11.9 mm. In addition, the Solubility result in the data set “Solubility” (in dimethyl sulfoxide) is reported as “Readily soluble”; in the data set “Solubility” (in methanol), “scarcely soluble”; in “Solubility” (in water), “insoluble”.
Take `O=C1NC(c2c[nH]c3ccc(O)cc23)=C/C1=C1\C(=O)Nc2ccccc21` [violacein]: in [9], the “antimicrobial and antiprotozoal activities” value was “known to exhibit antimicrobial and antiprotozoal activities”.
